Reference: publication PMC9269301, “Phytochemical Analysis, Antioxidant, Antimicrobial, and Cytotoxic Activity of Different Extracts of Xanthoparmelia stenophylla Lichen from Stara Planina, Serbia” (Plants, 2022)
Values after ≈ are worked out from the molar mass of the structure shown. Read-outs that look alike come from different tables or passages of the source. Marks after values point to notes of the source that are not given here.

Key:
[1] = Hydroxyl radical scavenging activity (2-deoxyribose); format: biochemical; details: mean ± SD, triplicate
Protocol: All chemicals for the antioxidant activity test were purchased from Sigma Aldrich. All measurements were conducted in triplicate, and a Shimadzu UV-1800 spectrophotometer was used for all measurements during antioxidant activity experiments. The IC50 value was used for comparing different radical scavenging effects between investigated extracts, isolated compounds, and positive controls. The ability to inhibit non-site-specific peroxidation mediated by hydroxyl radicals for […], and XSH was determined using the method previously described in the literature. During the experiment, in a reaction mixture that contained 500 μL of 5.6 mM 2-deoxy-D-ribose in KH2PO4-NaOH buffer (50 mM, pH 7.4), 100 μL of 1.0 mM aqueous ascorbic acid, 100 μL of 1.0 mM H2O2, and 200 μL of premixed solution of 100 μM FeCl3 and […] EDTA (1:1 v/v), 100 μL of extract dissolved in water was added. The tubes were vigorously shaken, vortexed, and incubated for 30 min at 50 °C. […] The mixture was vortexed again and heated in a water bath for 30 min at 50 °C. […] Ac stands for absorbance of the control (which contains all reagents, except the tested extract or compound), and As is the absorbance of the sample.

E. coli (isolate) = assay: Microdilution with resazurin, antibacterial; format: cell-based, Escherichia coli
Protocol: (§1) The tested methanol, acetone, and n-hexane extracts, as well as the component (usnic acid) of X. stenophylla, were dissolved in 10% dimethyl sulfoxide (DMSO) and then diluted into the nutrient liquid medium. DMSO was obtained from Acros Organics (Fair Lawn, NJ, USA). Resazurin was obtained from Alfa Aesar GmbH & Co. (KG, Karlsruhe, Germany).
(§2) The antimicrobial activity of the extracts and components was tested against 19 microorganisms. The experiment involved 15 strains of bacteria (i.e., 6 standard strains: Staphylococcus aureus ATCC 6538, Bacillus subtilis ATCC 6633, Proteus mirabilis ATCC 12453, Pseudomonas aeruginosa ATCC 27853, Klebsiella pneumoniae ATCC 70063, and Escherichia coli ATCC 25922; 9 isolates: Staphylococcus aureus, Escherichia coli, Salmonella enterica, Salmonella Typhimurium, Proteus mirabilis, Klebsiella pneumoniae, Pseudomonas aeruginosa, Bacillus subtilis, and Bacillus cereus). In addition, four fungal strains (i.e., two standard strains: Candida albicans ATCC 10231 and Aspergillus niger ATCC 16888; two isolates: Saccharomyces cerevisiae and Candida albicans) were tested. All isolates were a generous gift from the Institute of Public Health, Kragujevac. The other microorganisms were provided from the collection held by the Microbiology Laboratory Faculty of Science, University of Kragujevac.
(§3) The bacterial suspensions were prepared by the direct colony method. The turbidity of the initial suspension was adjusted using a densitometer (DEN-1, BioSan, Riga, Latvia). When adjusted to the turbidity of the 0.5 McFarland’s standard (Andrews, 2005) the bacteria suspension contained approximately 10^8 colony-forming units (CFU)/mL, and the suspension of yeast contained 10^6 CFU/mL; 1:100 dilutions of the initial suspension were additionally prepared in sterile 0.85% saline. The suspensions of fungal spores were prepared by gentle stripping of spores from slopes with growing mycelia. The resulting suspensions were 1:1000 diluted in sterile 0.85% saline.
(§4) Antimicrobial activity was tested by determining the minimum inhibitory concentrations (MICs) and minimum microbicidal concentrations (MBCs) using the microdilution plate method with resazurin [56]. The 96-well plates were prepared by dispensing 100 μL of Mueller–Hinton broth for bacteria and Sabouard broth for fungi into each well. A 10 μL aliquot from the stock solution of the tested extract or component was added to the first row of the plate. Then, two-fold serial dilutions were performed using a multichannel pipette. The obtained concentration range was from 10 to 0.08 mg/mL. The method is described in detail in [76].
(§5) Each test included growth control and sterility control.
(§6) Minimum microbicidal concentrations were determined by plating 10 μL of samples from wells where no indicator color change or no mycelia growth was recorded on a nutrient agar medium. At the end of the incubation period, the lowest concentration with no growth (no colony) was defined as the minimum microbicidal concentration.

E. coli ATCC 25922 = assay: Microdilution with resazurin, antibacterial; format: cell-based, Escherichia coli
Protocol: as §1, §2, §3, §4, §5, §6

S. enterica (isolate) = assay: microbe, parasite or virus in culture; format: cell-based, Salmonella enterica
Protocol: as §1, §2, §3, §4, §5, §6

B. subtilis (isolate) = assay: Microdilution with resazurin, antibacterial; format: cell-based, Bacillus subtilis
Protocol: as §1, §2, §3, §4, §5, §6

B. subtilis ATCC 6633 = assay: Microdilution with resazurin, antibacterial; format: cell-based, Bacillus subtilis
Protocol: as §1, §2, §3, §4, §5, §6

S. cerevisiae (isolate) = assay: Microdilution with resazurin, antifungal; format: cell-based, Saccharomyces cerevisiae; details: extracts and usnic acid
Protocol: as §1, §2, §3
as §4, with “[76]. […]” for “[76].”
Minimum microbicidal concentrations were determined by plating 10 μL of samples from wells where no indicator color change or no mycelia growth was recorded on a nutrient agar medium. […]

C. albicans (isolate) = assay: Microdilution with resazurin, antifungal; format: cell-based, Candida albicans; details: extracts and usnic acid
Protocol: as §1, §2, §3, §4, §5, §6

C. albicans ATCC 10231 = assay: Microdilution with resazurin, antifungal; format: cell-based, Candida albicans; details: extracts and usnic acid
Protocol: as §1, §2, §3, §4, §5, §6

A. niger ATCC 16888 = assay: Microdilution with resazurin, antifungal; format: cell-based, Aspergillus niger; details: extracts and usnic acid
Protocol: as §1, §2, §3, §4, §5, §6

[2] = tested on: S. aureus ATCC 6538 biofilm; assay: Biofilm metabolic activity by resazurin; format: cell-based, Staphylococcus aureus; details: at some concentrations, Figure 4
Protocol: Resazurin (7-hydroxy-3H-phenoxazin-3-one-10-oxide) is a viability dye used to assess the metabolic activity of biofilms. After incubation at 37 °C/48 h, a volume of 10 µL of resazurin indicator solution was added to each well. Plates were incubated in the dark for 3 h at 37 °C. The OD was measured at 590 nm using an enzyme-linked immunosorbent assay (ELISA) plate reader. In addition, the color change from purple to pink indicated the metabolic activity of the formed biofilm.

[3] = tested on: HeLa cells (cervical adenocarcinoma); assay: MTT assay; format: cell-based, human; details: HeLa
[4] = S. enterica, extracts and usnic acid

usnic acid
Hydroxyl Radical Scavenging Activity (IC50) [1]: 120.05 ± 0.85 ^a,b,c,d µg/mL | MBC (E. coli (isolate); extracts and usnic acid): <10000 µg/mL | MIC (E. coli (isolate); extracts and usnic acid): <10000 µg/mL | MBC (E. coli ATCC 25922; extracts and usnic acid): <10000 µg/mL | MIC (E. coli ATCC 25922; extracts and usnic acid): <10000 µg/mL | MBC (S. enterica (isolate); [4]): <10000 µg/mL | MIC (S. enterica (isolate); [4]): <10000 µg/mL | MBC (B. subtilis (isolate); extracts and usnic acid): <80 µg/mL | MIC (B. subtilis (isolate); extracts and usnic acid): <80 µg/mL | MBC (B. subtilis ATCC 6633; extracts and usnic acid): <80 µg/mL | MIC (B. subtilis ATCC 6633; extracts and usnic acid): <80 µg/mL | MFC (S. cerevisiae (isolate)): 10000 µg/mL | MIC (S. cerevisiae (isolate)): 5000 µg/mL | MFC (C. albicans (isolate)): <10000 µg/mL | MIC (C. albicans (isolate)): 10000 µg/mL | MFC (C. albicans ATCC 10231): <10000 µg/mL | MIC (C. albicans ATCC 10231): 10000 µg/mL | MFC (A. niger ATCC 16888): <10000 µg/mL | MIC (A. niger ATCC 16888): 10000 µg/mL | Metabolic activity of biofilm compared to the growth control [2]: lower | GI50 (50% growth inhibition) ([3]; 24 h): >100 µg/mL | IC50 ([3]; 24 h): >100 µg/mL | TGI (total growth inhibition) ([3]; 24 h): >100 µg/mL | GI50 (50% growth inhibition) ([3]; 48 h): 99.16 ± 15.59 µg/mL | IC50 ([3]; 48 h): >100 µg/mL | TGI (total growth inhibition) ([3]; 48 h): >100 µg/mL | GI50 (50% growth inhibition) ([3]; 72 h): 64.28 ± 8.34 µg/mL | TGI (total growth inhibition) ([3]; 72 h): 86.91 ± 5.42 µg/mL | IC50 ([3]; 72 h, listed as UA): >100 µg/mL

CN(C)[C@@H]1C(O)=C(C(N)=O)C(=O)[C@@]2(O)C(O)=C3C(=O)c4c(O)cccc4[C@@](C)(O)[C@H]3C[C@@H]12 [TC, tetracycline]
MBC (E. coli (isolate); Escherichia coli, antibiotics, read-out: MBC): 6 µg/mL (≈ 13.5 µM) | MIC (E. coli (isolate); Escherichia coli, antibiotics, read-out: MIC): 2 µg/mL (≈ 4.5 µM) | MBC (E. coli ATCC 25922; Escherichia coli, ATCC25922, antibiotics, read-out: MBC): 6 µg/mL (≈ 13.5 µM) | MIC (E. coli ATCC 25922; Escherichia coli, ATCC25922, antibiotics, read-out: MIC): 4 µg/mL (≈ 9 µM) | MBC (S. enterica (isolate); Salmonella enterica): 2 µg/mL (≈ 4.5 µM) | MBC (B. subtilis (isolate); Bacillus subtilis, antibiotics, read-out: MBC): 0.25 µg/mL (≈ 0.563 µM) | MIC (B. subtilis (isolate); Bacillus subtilis, antibiotics, read-out: MIC): < 0.06 µg/mL | MBC (B. subtilis ATCC 6633; Bacillus subtilis, ATCC6633, antibiotics, read-out: MBC): 0.37 µg/mL (≈ 0.833 µM) | MIC (B. subtilis ATCC 6633; Bacillus subtilis, ATCC6633, antibiotics, read-out: MIC): 0.25 µg/mL (≈ 0.563 µM)
